In assay [1] the test system is MHFD offspring. Put plainly: Three-chamber social test in MHFD offspring. Format: in vivo, mice. To be noted: for preference for social novelty / sociability: intranasal oxytocin approximately 200 μg/kg, 30 min prior; for preference for social novelty (time interacting with novel vs familiar mouse) / sociability (time interacting with mouse vs empty cage): in drinking water from weaning for 4 weeks, 1×10^8 organisms/mouse/day. As for the experimental part: Crawley's three-chamber test for sociability and preference for social novelty was performed as described (Silverman et al., 2010). In brief, the mouse first experienced a 10-minute period of habituation during which it was allowed to freely explore a 60×40×23 cm Plexiglass arena divided into three equally sized, interconnected chambers (Left, Center, Right). Sociability was measured during a second ten-minute period in which the subject could interact either with an empty wire cup (Empty) or a wire cup containing an age and sex-matched stranger conspecific (Mouse 1). Time spent interacting (sniffing, crawling upon) with either the empty cup or the stranger mouse contained in the other cup as well as time spent in each chamber was recorded using the AnyMaze software, by independent observers. Empty cup placement in the Left or Right chamber during the Sociability period was counterbalanced between trials. Finally, preference for social novelty was assayed by introducing a second stranger mouse (Mouse 2) into the previously the empty wire cup. Time spent in each chamber as well as time spent interacting with either Mouse 1 or Mouse 2 was recorded using the automated AnyMaze software by independent observers. Lactobacillus reuteri MM4-1A (ATCC-PTA-6475) and Lactobacillus johnsonii (ATCC 33200) were cultured anaerobically in MRS broth in a 90% N2, 5% CO2, 5% H2 environment. L. reuteri was heat-killed by keeping the bacteria at 80° C. for 20 minutes (Wang et al., 2010). Bacterial viability was assessed by plating and the efficacy of the heat-kill procedure was confirmed by the absence of colony growth following plating. Cultures were centrifuged, washed, and resuspended in anaerobic solution (PBS) and frozen at −80° C. until use. PBS, live or heat-killed L. reuteri were added to the drinking water, which was changed daily to minimize dosage variability. Whereas the experimental group received live bacteria, one control group received identically prepared cultures of heat-killed bacteria. A second group of control mice received water treated with PBS alone. Live and heat-killed L. reuteri were supplied at a dosage of 1×10^8 organisms/mouse/day continuously in drinking water. Mice consumed the treated water ad libitum over the treatment period. The treated drinking water for each group was replaced daily two hours prior to the onset of the dark cycle to minimize variation in microbial exposure. Behavioral assays were initiated after 4-weeks of L. reuteri or control treatment. The protocol of the L. johnsonii preparation and administration matched the L. reuteri protocol. Fecal samples for sequencing and tissue used in the immunofluorescence studies were collected at the end of the treatment. Oxytocin was obtained from Tocris Bioscience (product 1910) and solubilized in 10% dimethyl sulfoxide (DMSO) in PBS. 10% DMSO in PBS was used as the vehicle control. Mice received oxytocin intranasally (at approximately 200 μg/kg) thirty minutes prior to behavior. 1.25 μl of oxytocin or vehicle solution was injected into each nostril from P10 pipette. Oxytocin dose was selected according to dosages reported to rescue social behavior in genetic models phenotypically expressing ASD-like behaviors (Penagarikano et al., 2015).

Assay [2] relates to MHFD offspring. Put plainly: Open field test in MHFD offspring. The assay is classed as in vivo, mice. To be noted: L. reuteri in drinking water. As for the experimental part:
Mice were placed in an open arena (40×40×20 cm) and allowed to explore freely for 10 minutes while their position was continually monitored using tracking software (ANY-Maze). Tracking allowed for measurement of distance traveled, speed, and position in the arena throughout the task. Time spent in the center of the arena, defined as the interior 20×20 cm, was recorded. Lactobacillus reuteri MM4-1A (ATCC-PTA-6475) and Lactobacillus johnsonii (ATCC 33200) were cultured anaerobically in MRS broth in a 90% N2, 5% CO2, 5% H2 environment. L. reuteri was heat-killed by keeping the bacteria at 80° C. for 20 minutes (Wang et al., 2010). Bacterial viability was assessed by plating and the efficacy of the heat-kill procedure was confirmed by the absence of colony growth following plating. Cultures were centrifuged, washed, and resuspended in anaerobic solution (PBS) and frozen at −80° C. until use. PBS, live or heat-killed L. reuteri were added to the drinking water, which was changed daily to minimize dosage variability. Whereas the experimental group received live bacteria, one control group received identically prepared cultures of heat-killed bacteria. A second group of control mice received water treated with PBS alone. Live and heat-killed L. reuteri were supplied at a dosage of 1×10^8 organisms/mouse/day continuously in drinking water. […]

Entries after “also recorded” stand apart in the source; their conditions may differ.

We go through 2 compounds from patent publication US11135252B2, “Probiotic therapies for developmental disorders and other neurological disorders” (Baylor College of Medicine, priority 2016, dated 2021).

In the case of `CC[C@H](C)[C@@H]1NC(=O)[C@H](Cc2ccc(O)cc2)NC(=O)[C@@H](N)CSSC[C@@H](C(=O)N2CCC[C@H]2C(=O)N[C@@H](CC(C)C)C(=O)NCC(N)=O)NC(=O)[C@H](CC(N)=O)NC(=O)[C@H](CCC(N)=O)NC1=O` [oxytocin], in assay [1], the “preference for social novelty” value was “improved” and the sociability result was “improved sociability”. Also, in assay [1] (listed as Oxytocin), the “preference for social novelty” value is listed as “restored” and the sociability entry was “restored”.

With “Lactobacillus reuteri MM4-1A (ATCC-PTA-6475) [L. reuteri]”, in assay [2], the “time exploring the center of the open field arena (anxiety-related behavior)” value is recorded as “failed to rescue the changes in anxiety; also recorded: did not significantly affect this behavior”. In addition, in assay [1], the “preference for social novelty (time interacting with novel vs familiar mouse)” value is recorded as “significantly improved” and the “sociability (time interacting with mouse vs empty cage)” value is “significantly improved sociability”. In assay [1] (listed as live L. reuteri), the “preference for social novelty (time interacting with novel vs familiar mouse)” value is reported as “rescued” and the “sociability (time interacting with mouse vs empty cage)” value is listed as “rescued sociability”. In addition, in assay [1] (in drinking water, 4 weeks), the “preference for social novelty (chamber containing Mouse 2, FIG. 16B)” value is “improved” and the “sociability (chamber containing a mouse, FIG. 16A)” value is given as “improved MHFD offspring sociability”.
